# Measured values taken from patent US12410124B2 (priority 2019, dated 2025).
# What was measured:
# Format in all cases: in vivo
# midbrain TH = assay: Midbrain TH expression in MPTP Parkinson's disease model mouse (western-blotting); conditions: midbrain total protein, GAPDH internal reference, gavage 21 days after MPTP modeling
# Procedure: (§1) Neurotoxins can be used to establish PD animal models. Currently, 1-methyl-4-phenyl-1,2,3,6-tetrahydropyridine (MPTP) is the sole synthetic toxin which is recognized to induce PD symptoms in human and non-human primates and in mice. Using MPTP subacute modeling method, C57BL/6J male mice were intraperitoneally injected with MPTP 30 mg/kg, once a day for 5 consecutive days. The experiment animals were divided into blank control group, MPTP model group, and compound treatment group. For the […] compound treatment group, the compound was administrated by gavage for 21 consecutive days after the completion of modeling; for the MPTP model group, the normal saline was administrated by gavage for 21 consecutive days after the completion of modeling; and for the blank control group, the normal saline was first intraperitoneally injected for 5 days, and then administrated by gavage for 21 days.
# The main cause of PD lies in the pathological changes in the substantia nigra-striatum projection system of the brain and the progressive degeneration and loss of dopaminergic neurons. Tyrosine hydroxylase (TH) is the first enzyme in the biosynthesis of catecholamine neurotransmitters, as well as the first rate-limiting enzyme in the dopamine synthesis. It plays an important role in the synthesis and metabolism of the neurotransmitter DA. The TH in PD animal models and patients has a wide range of abnormal changes, from the gene expression to the enzyme protein content and enzyme activity. The detection of the TH expression in the midbrain and substantia nigra of PD model mice can be used to evaluate the neuroprotective activity of the compound.
# Half of experiment mice in each group were taken to extract the total midbrain protein, and the change in the midbrain TH was determined by western-blotting using GAPDH as the internal reference. The experiment included blank control group, MPTP model group, positive control group (caffeic acid phenethyl ester, CAPE), prototype control group (styryl sulfone compounds 3B, 3C, 3D, and 3G, whose structures are shown as above), and target compound group.
# substantia nigra GFAP = assay: Number of substantia nigra astrocytes with GFAP positive expression in MPTP Parkinson's disease model mouse (immunohistochemistry); conditions: for Positive cell number (astrocytes with GFAP positive expression): substantia nigra, MPTP Parkinson's disease model mouse, immunohistochemistry
# Procedure: as §1
# (§2) Neuron-glial cell network homeostasis disorder is an important factor for the selective and progressive death of substantia nigra dopaminergic neurons in PD. In the neurotoxic effect of MPTP, the excessive activations of microglial cells and astrocytes produce a variety of inflammatory cytokines and reactive oxygen species (ROS). These inflammatory factors and ROS amplify their respective toxicities and mediate malignant feedback loop, causing a cascade inflammation response and aggravating the pathological process of PD. CD11b and GFAP are the marker proteins for activations of microglial cells and astrocytes, respectively. Therefore, the effect of the target compounds on the activations of the microglial cells and astrocytes in the substantia nigra, hippocampus, and midbrain areas of MPTP-induced PD mice can be investigated, to explore the mechanism of the anti-PD effect of the target compounds by inhibiting the neuroinflammation.
# (§3) Half of experiment mice in each group were taken to separate the midbrain after perfusion and fixation. The tissue was trimmed, and the substantia nigra area was taken to prepare paraffin sections. The GFAP immunohistochemical staining was performed for the statistics of the change in the number of astrocytes with GFAP positive expression. The experiment included blank control group, MPTP model group, positive control group (caffeic acid phenethyl ester, CAPE), prototype control group (styryl sulfone compounds 3B, 3C, 3D, and 3G, whose structures are shown as above), and target compound group.
# HO-1 = assay: Midbrain HO-1 expression in MPTP Parkinson's disease model mouse (western blot); conditions: for Expression (HO-1/GAPDH): midbrain, MPTP Parkinson's disease model mouse, western blot
# Procedure: as §1
# Oxidative stress is an important pathogenic mechanism of PD. Dopaminergic neurons are more sensitive to oxidative stress and are more susceptible to oxidative stress damage. Heme oxygenase (HO-1), a phase II enzyme, is also a well-known antioxidase. It plays an important protective role by catalyzing the conversion of free radicals into non-toxic products and increasing their water solubility to facilitate the elimination of free radicals, and maintain the redox balance in the body. It plays an important role in the process of protecting cells against oxidative stress damage. The activation of p38 protein phosphorylation has a negative regulatory effect on phase II enzymes. […] Using HO-1 as an indicator, the inhibitory effect of the target compounds on MPTP-induced oxidative stress damage in PD mice can be investigated.
# HO-1 is expressed in astrocytes, microglial cells, and neurons. The total proteins of the midbrain tissue of mice in each experiment group were extracted, to determine the expression of phase II enzyme HO-1 in the midbrain of mice by western blot using GAPDH as the internal reference. The experiment included blank control group, MPTP model group, positive control group (caffeic acid phenethyl ester, CAPE), prototype control group (styryl sulfone compounds 3B, 3C, 3D, and 3G, whose structures are shown as above), and target compound group.
# hippocampus GFAP = assay: Number of hippocampus astrocytes with GFAP positive expression in MPTP Parkinson's disease model mouse (immunohistochemistry); conditions: for Positive cell number (astrocytes with GFAP positive expression): hippocampus, MPTP Parkinson's disease model mouse, immunohistochemistry
# Procedure: as §1, §2
# as §3, with “hippocampus” for “substantia nigra”
# substantia nigra p-α-s = assay: Substantia nigra p-α-s protein expression in MPTP Parkinson's disease model mouse (immunofluorescence); conditions: percentage of mean intensity of blank control group, gavage 21 days after MPTP modeling
# Procedure: as §1
# Alpha-synuclein is an “unfolded protein” in its natural state. It exists in a monomeric form, and participates in the physiological functions such as the release of neurotransmitters, the establishment of synaptic junctions, and the regulation of synaptic plasticity. Under pathological conditions, more than 90% of alpha-synuclein is phosphorylated at serine of position 129 and converted into phosphorylated alpha-synuclein (p-α-s), thereby forming Lewy bodies. The formation of Lewy bodies is one of the main pathological manifestations and pathological mechanisms for Parkinson's disease, and plays an important role in the formation and development of PD. The detection of the p-α-s expression in the midbrain and substantia nigra of PD model mice can evaluate the neuroprotective activity of the compound.
# as §3, with “nigra-striatum” for “nigra”, “p-α-s immunofluorescence” for “GFAP immunohistochemical”, “performed” for “performed for the statistics of the change”, “brain sections” for “number”, “mice in each group. […]” for “astrocytes with GFAP positive expression.”
Compound,Expression (TH/GAPDH) (midbrain TH),number of substantia nigra astrocytes with GFAP positive expression compared with the styryl sulfone prototype compounds (substantia nigra GFAP),Positive cell number (astrocytes with GFAP positive expression) (substantia nigra GFAP),midbrain HO-1 expression compared with the styryl sulfone prototype compounds (HO-1),Expression (HO-1/GAPDH) (HO-1),number of hippocampus astrocytes with GFAP positive expression compared with the styryl sulfone prototype compounds (hippocampus GFAP),Positive cell number (astrocytes with GFAP positive expression) (hippocampus GFAP),Expression (Immunofluorescence intensity %) (substantia nigra p-α-s) [%]
"CCN(CC)C(=O)Oc1ccc(/C=C/S(=O)(=O)Cc2ccc(C(C)(C)C)cc2)cc1OC(=O)N(CC)CC [Compound G1-1, (E)-4-{2-[(4-t-butylphenyl)mesyl]ethenyl}-1,2-phenylenebis(diethylcarbamate)]",0.70 ± 0.03,significantly lower,76 ± 4,significantly higher,1.35 ± 0.10,significantly lower,66 ± 4,77.36 ± 9.15
"CCOC(CS(=O)(=O)/C=C/c1ccc(OC(C)=O)c(OC(=O)Nc2ccc(NC)cc2)c1)C(OCC)c1ccc(OCc2ccccc2)c(O)c1 (centres unmarked) [Compound H2-4, (E)-4-{2-[3-(4-benzyloxy-3-hydroxyphenyl)-2,3-diethoxypropyl]sulfonylethenyl}-2-[N-(4-methylaminophenyl)carbamoyloxy]phenyl acetate]",1.02 ± 0.04,–,93 ± 6,–,0.95 ± 0.10,–,61 ± 5,136.53 ± 8.94
"COCCN(C)C(=O)Oc1cc(/C=C/S(=O)(=O)CCc2cccc(-c3ccc(C)o3)c2)ccc1OC(C)=O [Compound J1-4, (E)-2-[N-(2-methoxyethyl)-N-methylcarbamoyloxy]-4-{2-[3-(5-methylfur-2-yl)phenylethylsulfonyl]ethenyl}phenyl acetate]",0.89 ± 0.04,–,77 ± 4,–,1.25 ± 0.06,–,79 ± 2,116.95 ± 8.06
"CC(Br)C(Br)COc1cc(/C=C/S(=O)(=O)CCc2ccc(OCC(F)(F)F)cc2)ccc1OC(=O)Nc1ccsc1 (centres unmarked) [Compound K1-3, (E)-2-(2,3-dibromobutoxy)-4-{2-[4-(2,2,2-trifluoroethoxy)phenylethylsulfonyl]ethenyl}phenyl-N-(thien-3-yl)carbamate]",0.91 ± 0.04,–,86 ± 5,–,0.83 ± 0.08,–,65 ± 5,90.04 ± 7.43
"C=CCOc1ccc(C/C=C/S(=O)(=O)/C=C/c2ccc(OC(C)=O)c(OC(=O)N(CC=C)CC=C)c2)cc1 [Compound K1-4, 4-{(E)-2-[(E)-3-(4-allyloxyphenyl)prop-1-en-1-yl]sulfonylethenyl}-2-(N,N-diallylcarbamoyloxy)phenyl acetate]",0.74 ± 0.08,–,112 ± 4,–,1.02 ± 0.09,–,71 ± 4,106.95 ± 9.27
"COc1cc(/C=C/S(=O)(=O)Cc2cc(OC)c(OC)c(OC)c2)ccc1OC(=O)N(c1ccccc1)c1ccccc1 [Compound K3-3, (E)-2-methoxy-4-{2-[(3,4,5-trimethoxyphenyl)mesyl]ethenyl}-phenyl-N,N-diphenylcarbamate]",1.15 ± 0.05,–,96 ± 3,–,0.69 ± 0.07,–,69 ± 3,180.11 ± 13.51
"O=C(NC(=O)C(F)(F)F)Oc1ccc(/C=C/S(=O)(=O)C(F)(F)c2ccc(Oc3ccccn3)cc2)cc1OC(=O)C(F)(F)C(F)(F)F [Compound L1-4, (E)-5-{2-[(4-[pyridin-2-yl-oxy]phenyl)difluoromethylsulfonyl]ethenyl}-2-[N-(2,2,2-trifluoroacetyl)carbamoyloxy]phenyl-2,2,3,3,3-pentafluoropropionate]",0.79 ± 0.04,–,98 ± 4,–,1.13 ± 0.12,–,76 ± 4,58.37 ± 6.11
"CCN(C)C(=O)Oc1ccc(/C=C/S(=O)(=O)CC(c2ccc(-c3ccc(OC)c(OC)c3)cc2)[N+](=O)[O-])cc1OC(=O)N(C)CC (centres unmarked) [Compound M1-1, (E)-4-{2-[2-(3′,4′-dimethoxy-[1,1′-biphenyl]-4-yl)-2-nitroethylsulfonyl]ethenyl}-1,2-phenylenebis(N-ethyl-N-methylcarbamate)]",1.35 ± 0.04,–,59 ± 3,–,1.29 ± 0.07,–,51 ± 5,95.64 ± 9.25
CN(C)c1ccc(CC(=O)Oc2cc(/C=C/S(=O)(=O)C(Br)c3ccc(Cc4ccc(N(C)C)cc4)cc3)ccc2OC(=O)N2CCCC2C(F)(F)F)cc1 (centres unmarked) [Compound M1-5],0.83 ± 0.06,–,81 ± 4,–,0.96 ± 0.08,–,67 ± 6,67.90 ± 3.29
"Cc1ccc(N2CCN(C(=O)Oc3ccc(/C=C/S(=O)(=O)CCCC(c4ccc(OC(=O)CN(C)C)cc4)N(C)C)cc3OC(=O)N(C)c3ccccc3)CC2)cc1 (centres unmarked) [Compound P1-1, (E)-4-{2-[4-(dimethylamino)-4-(4-(N,N-dimethylglycyloxy)phenyl)butylsulfonyl]ethenyl}-2-(N-methyl-N-phenylcarbamoyloxy)phenyl-4-(p-methylphenyl)piperazine-1-carboxylate]",0.88 ± 0.04,–,73 ± 6,–,1.17 ± 0.05,–,72 ± 3,182.99 ± 12.70
